Laboratory results: patent US12729377B2, “RNAi agents and compositions for inhibiting expression of angiopoietin-like 3 (ANGPTL3), and methods of use” (Arrowhead Pharmaceuticals, Inc., priority 2017, dated 2026)
In the oligonucleotide strings, read from the 5' end, every base follows the letter of its sugar. An asterisk marks phosphorothioate; unmarked linkages are phosphodiester. Other units and linkages are bracketed, terminal groups are in braces. A string of capitals states the bases alone. {NAG37} = tridentate N-acetyl-galactosamine targeting ligand, structure (NAG37)s; [invAb] = inverted abasic unit; m = 2'-O-methyl; f = 2'-fluoro

System: ANGPTL3 gene
Assay: Example 12: serum LDL in LDLR knockout mice
Format: in vivo, LDLR KO mice
Details: 3.0 mg/kg sc day 1
Description: To evaluate the effect of RNAi agent administration in a disease model, mice having a genetic mutation for the LDL receptor (referred to herein as LDLR KO mice) were commercially obtained (The Jackson Laboratory). The LDLR KO mice are homozygous for the Ldlr^tm1Her mutation, and have elevated serum cholesterol levels, particularly when placed on a high fat diet. For three weeks prior to the onset of the study, thirty-nine (39) LDLR KO mice were placed on a high fat diet (Teklad Custom Diets TD.88137). An additional eight (8) LDLR KO mice were placed on a normal chow diet over the same three-week period. Pre-dose serum samples were taken on day −15 and day −1 after a four hour fast. At day 1, each mouse was given a single subcutaneous administration of 200 μl/30 g animal body weight containing the respective mg/kg dose of an ANGPTL3 RNAi agent in D5W (dextrose in 5% water), control (D5W) with no RNAi agent, or a control RNAi agent that included a nucleotide sequence designed to target the Hepatitis B Virus (HBV) genome. A second injection of the same formulation was administered to the animals on day 29. The dosing regimen for the study is recited in the following Table 60:
Each mouse remained on its respective diet through the duration of study. The RNAi agent tested (AD05488) included a modified sequence and an N-acetyl-galactosamine-containing targeting ligand conjugated to the 5′ terminal end of the sense strand. (See Tables 3, […] modified sequences and targeting ligand structures). The injections were performed between the skin and muscle (i.e. subcutaneous injections) into the loose skin over the neck and shoulder area. Serum was collected on days 8, 15, 22, 29 (pre-second dose), 36, 43, 50, and 57. LDLR KO mice were fasted for four hours prior to each collection. On day 15, four (4) LDLR KO mice from Groups 1, 2, and 3 (i.e., the groups being administered the high fat “Western” diet) were sacrificed after serum collection, and on day 29, an additional four (4) LDLR KO mice from Groups 1, 2, and 3 were sacrificed after serum collection, for the purpose of performing mRNA assessments.
ANGPTL3 protein levels in serum were measured by ELISA assay (R&D Systems), according to the manufacturer's recommendations. Triglycerides, total cholesterol, high-density lipoprotein (HDL), and low-density lipoprotein (LDL) in serum were measured on a Cobas® Integra 400 (Roche Diagnostics), according to the manufacturer's recommendations.
The ANGPTL3 protein levels, triglyceride levels, total cholesterol levels, HDL levels, and LDL levels for each animal were normalized. For normalization, respective levels of ANGPTL3 protein, TG, total cholesterol, HDL, or LDL for each animal at a time point was divided by the average pre-treatment level of expression in that animal (in this case the average of day −15 and day −1) to determine the ratio of expression “normalized to pre-treatment.”
Expression at a specific time point was then normalized to the D5W control group that was administered the same diet (i.e., either the high fat “Western” diet or the normal chow-fed diet) by dividing the “normalized to pre-treatment” ratio for an individual animal by the mean “normalized to pretreatment” ratio of all mice in the D5W control group on the respective same diet, resulting in expression for each time point normalized to that in the control group.

AD05488: RNAi agent duplex: antisense AM07235-AS, sense AM07234-SS (antisense mU*fA*mC*fUmGfAmUfCmAfAmAfUmAfUmGfUmUfGmAfG*mC; sense {NAG37}*[invAb]*mGmCmUmCmAmAmCmAfUfAfUmUmUmGmAmUmCmAmGmUmA*[invAb])
Avg LDL Normalized to Pre-Treatment and Control (Diet Matched) (High Fat Diet, Day 8): 0.547
Avg LDL Normalized to Pre-Treatment and Control (Diet Matched) (High Fat Diet, Day 15): 0.476
Avg LDL Normalized to Pre-Treatment and Control (Diet Matched) (High Fat Diet, Day 22): 0.429
Avg LDL Normalized to Pre-Treatment and Control (Diet Matched) (High Fat Diet, Day 29 (pre-second dose)): 0.419
Avg LDL Normalized to Pre-Treatment and Control (Diet Matched) (Normal Diet, Day 8): 0.558
Avg LDL Normalized to Pre-Treatment and Control (Diet Matched) (Normal Diet, Day 15): 0.606
Avg LDL Normalized to Pre-Treatment and Control (Diet Matched) (Normal Diet, Day 22): 0.662
Avg LDL Normalized to Pre-Treatment and Control (Diet Matched) (Normal Diet, Day 29 (pre-second dose)): 0.563
